Laboratory results as given in patent publication US8143244B2, “Cyclopropyl fused indolobenzazepine HCV NS5B inhibitors” (Bristol-Myers Squibb Company, priority 2009, dated 2012).
Read-outs that look alike come from different tables or passages of the source.

Experiments:
[1] = target: T1, HCV NS5B (Hepatitis C virus genotype 1b, UniProt Q9WMX2); assay: HCV NS5B RdRp enzyme assay; assay type: biochemical; details: HCV NS5B RdRp genotype 1b
T1 construct: The protein was expressed with an 18 amino acid C-terminal truncation to enhance the solubility; made in house; host or cells: E. coli BL21(DE3)
T1 sequence (Q9WMX2 2420-2992): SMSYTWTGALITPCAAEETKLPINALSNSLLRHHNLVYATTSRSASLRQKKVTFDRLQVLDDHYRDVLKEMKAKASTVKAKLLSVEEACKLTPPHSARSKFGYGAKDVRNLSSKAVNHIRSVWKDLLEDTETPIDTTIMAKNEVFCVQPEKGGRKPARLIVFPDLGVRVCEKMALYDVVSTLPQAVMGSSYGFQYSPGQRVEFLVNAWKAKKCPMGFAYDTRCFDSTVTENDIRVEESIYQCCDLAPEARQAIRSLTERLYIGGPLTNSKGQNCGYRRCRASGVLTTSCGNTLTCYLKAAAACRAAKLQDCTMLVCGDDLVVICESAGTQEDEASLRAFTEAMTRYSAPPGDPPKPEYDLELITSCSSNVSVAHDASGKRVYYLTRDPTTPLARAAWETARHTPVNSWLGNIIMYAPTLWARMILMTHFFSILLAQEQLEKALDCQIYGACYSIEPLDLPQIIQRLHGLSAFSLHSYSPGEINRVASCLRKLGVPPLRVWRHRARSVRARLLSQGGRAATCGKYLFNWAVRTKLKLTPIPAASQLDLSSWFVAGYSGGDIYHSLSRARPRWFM
Method: HCV NS5B RdRp cloning, expression, and purification. The cDNA encoding the NS5B protein of HCV, genotype 1b, was cloned into the pET21a expression vector. The protein was expressed with an 18 amino acid C-terminal truncation to enhance the solubility. The E. coli competent cell line BL21(DE3) was used for expression of the protein. Cultures were grown at 37° C. for ˜4 hours until the cultures reached an optical density of 2.0 at 600 nm. The cultures were cooled to 20° C. and induced with 1 mM IPTG. Fresh ampicillin was added to a final concentration of 50 μg/ml and the cells were grown overnight at 20° C.
Cell pellets (3L) were lysed for purification to yield 15-24 mgs of purified NS5B. The lysis buffer consisted of 20 mM Tris-HCl, pH 7.4, 500 mM NaCl, 0.5% triton X-100, 1 mM DTT, 1 mM EDTA, 20% glycerol, 0.5 mg/ml lysozyme, 10 mM MgCl2, 15 ug/ml deoxyribonuclease I, and Complete TM protease inhibitor tablets (Roche). After addition of the lysis buffer, frozen cell pellets were resuspended using a tissue homogenizer. To reduce the viscosity of the sample, aliquots of the lysate were sonicated on ice using a microtip attached to a Branson sonicator. The sonicated lysate was centrifuged at 100,000×g for 1 hr at 4° C. and filtered through a 0.2 μm filter unit (Corning).
The protein was purified using three sequential chromatography steps: Heparin sepharose CL-6B, polyU sepharose 4B, and Hitrap SP sepharose (Pharmacia). The chromatography buffers were identical to the lysis buffer but contained no lysozyme, deoxyribonuclease I, MgCl2 or protease inhibitor and the NaCl concentration of the buffer was adjusted according to the requirements for charging the protein onto the column. Each column was eluted with a NaCl gradient which varied in length from 5-50 column volumes depending on the column type. After the final chromatography step, the resulting purity of the enzyme is >90% based on SDS-PAGE analysis. The enzyme was aliquoted and stored at −80° C.
Standard HCV NS5B RdRp enzyme assay. HCV RdRp genotype 1b assays were run in a final volume of 60 μl in 96 well plates (Costar 3912). The assay buffer is composed of 20 mM Hepes, pH 7.5, 2.5 mM KCl, 2.5 mM MgCl2, 1 mM DTT, 1.6 U RNAse inhibitor (Promega N2515), 0.1 mg/ml BSA (Promega R3961), and 2% glycerol. All compounds were serially diluted (3-fold) in DMSO and diluted further in water such that the final concentration of DMSO in the assay was 2%. HCV RdRp genotype 1b enzyme was used at a final concentration of 28 nM. A polyA template was used at 6 nM, and a biotinylated oligo-dT12 primer was used at 180 nM final concentration. Template was obtained commercially (Amersham 27-4110). Biotinylated primer was prepared by Sigma Genosys. 3H-UTP was used at 0.6 μCi (0.29 μM total UTP). Reactions were initiated by the addition of enzyme, incubated at 30° C. for 60 min, and stopped by adding 25 μl of 50 mM EDTA containing SPA beads (4 μg/μl, Amersham RPNQ 0007). Plates were read on a Packard Top Count NXT after >1 hr incubation at room temperature.
Modified HCV NS5B RdRp enzyme assay. A modified enzyme assay was performed essentially as described for the standard enzyme assay except for the following: The biotinylated oligo dT12 primer was precaptured on streptavidin-coated SPA beads by mixing primer and beads in assay buffer and incubating at room temperature for one hour. Unbound primer was removed after centrifugation. The primer-bound beads were resuspended in 20 mM Hepes buffer, pH 7.5 and used in the assay at final concentrations of 20 nM primer and 0.67 μg/μl beads. Order of addition in the assay: enzyme (14 nM) was added to diluted compound followed by the addition of a mixture of template (0.2 nM), 3H-UTP (0.6 μCi, 0.29 μM), and primer-bound beads, to initiate the reaction; concentrations given are final. Reactions were allowed to proceed for 4 hours at 30° C.
IC50 values for compounds were determined using seven different [I]. […]

[2] = tested on: HCV replicon; assay: HCV replicon FRET / luciferase assay (NeoLuc); assay type: cell-based, HCV genotype 1b; details: Hepatitis C virus, HCV replicon cells
Description: FRET Assay Preparation. To perform the HCV FRET screening assay, 96-well cell culture plates were used. The FRET peptide (Anaspec, Inc.) (Taliani et al., Anal. Biochem. 1996, 240, 60-67) contains a fluorescence donor, EDANS, near one end of the peptide and an acceptor, DABCYL, near the other end. The fluorescence of the peptide is quenched by […] resonance energy transfer (RET) between the donor and the acceptor, but as the NS3 protease cleaves the peptide the products are released from RET quenching and the fluorescence of the donor becomes apparent. The assay reagent was made as follows: 5× cell Luciferase cell culture lysis reagent from Promega (#E153A) diluted to 1× with dH2O, NaCl added to 150 mM final, the FRET peptide diluted to 20 μM final from a 2 mM stock.
To prepare plates, HCV replicon cells, with or without a Renilla luciferase reporter gene, were trypsinized and placed into each well of a 96-well plate with titrated test compounds added in columns 3 through 12; columns 1 and 2 contained a control compound (HCV protease inhibitor), and the bottom row contained cells without compound. The plates were then placed in a CO2 incubator at 37° C.
Assays. Subsequent to addition of the test compounds described above (FRET Assay Preparation), at various times the plate was removed and Alamar blue solution (Trek Diagnostics, #00-100) was added per well as a measure of cellular toxicity. After reading in a Cytoflour 4000 instrument (PE Biosystems), plates were rinsed with PBS and then used for FRET assay by the addition of 30 ul of the FRET peptide assay reagent described above (FRET Assay Preparation) per well. The plate was then placed into the Cytoflour 4000 instrument which had been set to 340 excite/490 emission, automatic mode for 20 cycles and the plate read in a kinetic mode. Typically, the signal to noise using an endpoint analysis after the reads was at least three-fold. Alternatively, after Alamar blue reading, plates were rinsed with PBS, 50 ul of DMEM (high glucose) without phenol red was added and plates were then used for luciferase assay using the Promega Dual-Glo Luciferase Assay System,
Compound analysis was deteiniined by quantification of the relative HCV replicon inhibition and the relative cytotoxicity values. To calculate cytoxicity values, the average Alamar Blue fluorescence signals from the control wells were set as 100% non-toxic. The individual signals in each of the compound test wells were then divided by the average control signal and multiplied by 100% to determine […]. To calculate the HCV replicon inhibition values, an average background value was obtained from the two wells containing the highest amount of HCV protease inhibitor at the end of the assay period. These numbers were similar to those obtained from naïve Huh-7 cells.
The background numbers were then subtracted from the average signal obtained from the control wells and this number was used as 100% activity. The individual signals in each of the compound test wells were then divided by the averaged control values after background subtraction and multiplied by 100% to determine percent activity. EC50 values for a protease inhibitor titration were calculated as the concentration which caused a 50% reduction in FRET or luciferase activity. The two numbers generated for the compound plate, percent cytoxicity and percent activity were used to determine compounds of interest for further analysis.

[3] = genotype 1b, read-out: NeoLuc EC50, Table 1, genotype 1b

| SMILES | IC50 ([1]; Table 1) | EC50 [2, 3] | IC50 ([1]; Table 2) | EC50 ([2]; Table 2, read-out: NeoLuc EC50) |
| --- | --- | --- | --- | --- |
| COc1ccc2c(c1)C1CC1(C(=O)N1CC34CNCC3(COC4)C1)Cn1c-2c(C2CCCCC2)c2ccc(C(=O)NS(=O)(=O)C(C)C)cc21 (stereo not shown) | 1.9 to 500 nM | 1.9 to 500 nM |  |  |
| C=C(/C=C1\C(=C)c2c(C3CCCCC3)c3ccc(C(=O)NS(=O)(=O)C(C)C)cc3n2CC2(C(=O)N3CC45CNCC4(CNC5)C3)CC12)OC (stereo not shown) | < 2.3 nM | > 1000 nM |  |  |
| COc1ccc2c(c1)C1CC1(C(=O)N1CC34COCC3(CN(C)C4)C1)Cn1c-2c(C2CCCCC2)c2ccc(C(=O)NS(=O)(=O)C(C)C)cc21 (stereo not shown) | < 2.3 nM | 1.9 to 500 nM |  |  |
| COc1ccc2c(c1)C1CC1(C(=O)N1CC34CN(C)CC3(CN(C)C4)C1)Cn1c-2c(C2CCCCC2)c2ccc(C(=O)NS(=O)(=O)C(C)C)cc21 (stereo not shown) | < 2.3 nM | 1.9 to 500 nM |  |  |
| C=C(C)S(=O)(=O)NC(=O)c1ccc2c(C3CCCCC3)c3n(c2c1)C[C@@]1(C(=O)N2CC45CNCC4(COC5)C2)C[C@H]1c1cc(OC)ccc1-3 (stereo partly shown) | < 2.3 nM | 1.9 to 500 nM |  |  |
| COc1ccc2c(c1)C1CC1(C(=O)N1CC34CNCC3(COC4)C1)Cn1c-2c(C2CCCCC2)c2ccc(C(=O)NS(=O)(=O)CC(C)C)cc21 (stereo not shown) | 1.9 to 500 nM | 1.9 to 500 nM |  |  |
| CCN1CC23COCC2(C1)CN(C(=O)C12CC1c1cc(OC)ccc1-c1c(C4CCCCC4)c4ccc(C(=O)NS(=O)(=O)C(C)C)cc4n1C2)C3 (stereo not shown) | 1.9 to 500 nM | 1.9 to 500 nM |  |  |
| COc1ccc2c(c1)C1CC1(C(=O)N1CC34COCC3(CN(C)C4)C1)Cn1c-2c(C2CCCCC2)c2ccc(C(=O)NS(=O)(=O)CC(C)C)cc21 (stereo not shown) | 1.9 to 500 nM | 1.9 to 500 nM |  |  |
| COC[C@]12CNC[C@@]1(COC)CN(C(=O)C13CC1c1cc(OC)ccc1-c1c(C4CCCCC4)c4ccc(C(=O)NS(=O)(=O)C(C)C)cc4n1C3)C2 (stereo partly shown) |  | 1.9 to 500 nM |  |  |
| C=C(C)S(=O)(=O)NC(=O)c1ccc2c(C3CCCCC3)c3n(c2c1)C[C@@]1(C(=O)N2C[C@@]4(COC)CNC[C@@]4(COC)C2)C[C@H]1c1cc(OC)ccc1-3 | < 20 nM | 500 to 1000 nM |  |  |
| COC[C@@]12CN(C)C[C@]1(COC)CN(C(=O)C13CC1c1cc(OC)ccc1-c1c(C4CCCCC4)c4ccc(C(=O)NS(=O)(=O)C(C)C)cc4n1C3)C2 (stereo partly shown) | 1.9 to 500 nM | 1.9 to 500 nM |  |  |
| C=C(C)S(=O)(=O)NC(=O)c1ccc2c(C3CCCCC3)c3n(c2c1)C[C@@]1(C(=O)N2C[C@]4(COC)CN(C)C[C@]4(COC)C2)C[C@H]1c1cc(OC)ccc1-3 | < 20 nM | 1.9 to 500 nM |  |  |
| COC(=O)N1CC23COCC2(C1)CN(C(=O)[C@]12C[C@H]1c1cc(OC)ccc1-c1c(C4CCCCC4)c4ccc(C(=O)NS(=O)(=O)C(C)C)cc4n1C2)C3 (stereo partly shown) | 1.9 to 500 nM |  |  |  |
| COC(=O)N1CC23COCC2(C1)CN(C(=O)[C@]12C[C@H]1c1cc(OC)ccc1-c1c(C4CCCCC4)c4ccc(C(=O)NS(=O)(=O)N(C)C)cc4n1C2)C3 (stereo partly shown) | > 1000 nM |  |  |  |
| CNC(=O)N1CC23COCC2(C1)CN(C(=O)[C@]12C[C@H]1c1cc(OC)ccc1-c1c(C4CCCCC4)c4ccc(C(=O)NS(=O)(=O)C(C)C)cc4n1C2)C3 (stereo partly shown) | 1.9 to 500 nM | 1.9 to 500 nM |  |  |
| CNC(=O)N1CC23COCC2(C1)CN(C(=O)[C@]12C[C@H]1c1cc(OC)ccc1-c1c(C4CCCCC4)c4ccc(C(=O)NS(=O)(=O)N(C)C)cc4n1C2)C3 (stereo partly shown) | 1.9 to 500 nM | 1.9 to 500 nM |  |  |
| COc1ccc2c(c1)[C@@H]1C[C@]1(C(=O)N1CC34COCC3(C1)CN(C1CC1)C4)Cn1c-2c(C2CCCCC2)c2ccc(C(=O)NS(=O)(=O)N(C)C)cc21 (stereo partly shown) | 1.9 to 500 nM | 1.9 to 500 nM |  |  |
| COc1ccc2c(c1)[C@@H]1C[C@]1(C(=O)N1CC34CCC3(C1)CN(C1CC1)C4)Cn1c-2c(C2CCCCC2)c2ccc(C(=O)NS(=O)(=O)C(C)C)cc21 (stereo partly shown) | 1.9 to 500 nM | 1.9 to 500 nM |  |  |
| CCOCCN1CC23COCC2(C1)CN(C(=O)[C@]12C[C@H]1c1cc(OC)ccc1-c1c(C4CCCCC4)c4ccc(C(=O)NS(=O)(=O)C(C)C)cc4n1C2)C3 (stereo partly shown) [drawing 101] | 1.9 to 500 nM | 1.9 to 500 nM |  |  |
| CCOCCN1CC23COCC2(C1)CN(C(=O)[C@]12C[C@H]1c1cc(OC)ccc1-c1c(C4CCCCC4)c4ccc(C(=O)NS(=O)(=O)C(C)C)cc4n1C2)C3 (stereo partly shown) [drawing 112] |  |  | 1.9 nM | 7.69 nM |
